The target of this test is GluA1o-γ8 (GRIA1o-CACNG8 fusion construct; TARP γ8 dependent AMPA receptor) (Homo sapiens (Human), UniProt P42261+Q8WXS5). In words: Calcium flux assay (FLIPR), inhibition of glutamate response of GluA1o-γ8 channel. Format: cell-based. The settings on record: HEK293 cells stably expressing GRIA1o-CACNG8 fusion; 15 μM glutamate; pIC50 = negative log of IC50 in molar; read-out: GluR1-γ8 (pIC50) (converted). The gist of the method: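 Potency is the midpoint of a four-parameter logistic fit to control-normalized FLIPR calcium responses elicited by 15 μM glutamate. Stable HEK293 cells carried a fused GluA1o-γ8 construct and were preincubated with compound and calcium dye in pH 7.4 HEPES buffer.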
GluA1o-γ8 (GRIA1o-CACNG8 fusion construct; TARP γ8 dependent AMPA receptor), sequence (P42261 other isoform, or with tags, fused parts or gaps): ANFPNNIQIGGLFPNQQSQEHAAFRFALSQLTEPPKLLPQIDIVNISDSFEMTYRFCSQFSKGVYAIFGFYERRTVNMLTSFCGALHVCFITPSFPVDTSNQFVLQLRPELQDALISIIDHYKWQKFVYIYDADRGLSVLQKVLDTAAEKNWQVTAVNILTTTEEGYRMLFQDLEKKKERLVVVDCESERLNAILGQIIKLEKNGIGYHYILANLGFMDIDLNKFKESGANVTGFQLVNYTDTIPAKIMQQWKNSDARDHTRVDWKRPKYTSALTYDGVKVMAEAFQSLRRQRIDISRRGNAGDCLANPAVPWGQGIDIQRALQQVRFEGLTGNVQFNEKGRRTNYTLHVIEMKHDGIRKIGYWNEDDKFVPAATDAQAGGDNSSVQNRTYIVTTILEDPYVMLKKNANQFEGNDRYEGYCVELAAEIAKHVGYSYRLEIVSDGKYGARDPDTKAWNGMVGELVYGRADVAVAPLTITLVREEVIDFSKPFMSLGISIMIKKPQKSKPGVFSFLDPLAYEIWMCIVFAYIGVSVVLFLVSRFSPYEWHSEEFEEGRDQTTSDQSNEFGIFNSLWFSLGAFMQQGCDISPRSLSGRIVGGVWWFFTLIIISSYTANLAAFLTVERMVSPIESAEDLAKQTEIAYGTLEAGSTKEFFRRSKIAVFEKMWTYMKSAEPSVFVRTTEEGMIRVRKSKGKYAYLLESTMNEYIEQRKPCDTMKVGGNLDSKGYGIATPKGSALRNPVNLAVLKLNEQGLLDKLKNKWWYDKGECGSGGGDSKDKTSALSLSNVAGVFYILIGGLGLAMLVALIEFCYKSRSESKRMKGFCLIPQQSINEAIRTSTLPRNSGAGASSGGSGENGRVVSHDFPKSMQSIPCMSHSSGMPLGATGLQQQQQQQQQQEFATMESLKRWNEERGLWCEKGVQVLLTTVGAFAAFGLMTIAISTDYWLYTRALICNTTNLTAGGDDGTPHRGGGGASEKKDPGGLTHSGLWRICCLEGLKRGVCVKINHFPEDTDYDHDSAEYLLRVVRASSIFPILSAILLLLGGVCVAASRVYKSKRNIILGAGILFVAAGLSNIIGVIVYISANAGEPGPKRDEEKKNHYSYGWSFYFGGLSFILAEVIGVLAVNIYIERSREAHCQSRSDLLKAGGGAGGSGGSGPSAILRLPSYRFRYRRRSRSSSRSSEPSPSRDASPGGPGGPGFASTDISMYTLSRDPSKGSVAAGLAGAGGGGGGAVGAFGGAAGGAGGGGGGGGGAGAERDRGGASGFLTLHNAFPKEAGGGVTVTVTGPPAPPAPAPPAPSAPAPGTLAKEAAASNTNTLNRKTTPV

In the case of `C[S+]([O-])c1nccn2c(-c3ccc4c(c3)CC(=O)N4)c(-c3ccc(F)cc3)nc12` (stereo not drawn) [Example 128, 5-[2-(4-Fluorophenyl)-8-methylsulfinyl-imidazo[1,2-a]pyrazin-3-yl]indolin-2-one], the IC50 is 631 nM.
As for `O=C1Cc2cc(-c3c(-c4ccc(F)cc4)nc4c(N5CC[C@@H](O)[C@H](F)C5)nccn34)ccc2N1` (relative stereo) [Example 70, (trans)-5-[8-(3-Fluoro-4-hydroxy-1-piperidyl)-2-(4-fluorophenyl)imidazo[1,2-a]pyrazin-3-yl]indolin-2-one], the IC50 was 0.158 nM.
On to `Nc1nccn2c(-c3ccc4c(c3)CC(=O)N4)c(-c3ccc(F)cc3)nc12` [Example 248, 5-[8-Amino-2-(4-fluorophenyl)imidazo[1,2-a]pyrazin-3-yl]indolin-2-one], for which the IC50 was 5010 nM.
With `O=C1Cc2cc(-c3c(-c4ccccc4)nn4c(N5CCC(O)CC5)nccc34)ccc2N1` [Example 187, 5-[7-(4-Hydroxy-1-piperidyl)-2-phenyl-pyrazolo[1,5-c]pyrimidin-3-yl]indolin-2-one] the figure was 0.158 nM; with `CC(C)c1nn2c(N3CCOCC3)nccc2c1-c1ccc2[nH]ncc2c1` [Example 238, 4-[3-(1H-Indazol-5-yl)-2-isopropyl-pyrazolo[1,5-c]pyrimidin-7-yl]morpholine], 398 nM; with `N#Cc1ccc(-c2nc3c(N4CCOCC4)nccn3c2-c2ccc3[nH]ncc3c2)cc1` [Example 97, 4-[3-(1H-Indazol-5-yl)-8-morpholino-imidazo[1,2-a]pyrazin-2-yl]benzonitrile], 3.98 nM.
The figure for `O=C1NCc2cc(-c3c(-c4ccc(F)cc4)nc4c(N5CCOCC5)nccn34)ccc2N1` [Example 120, 6-[2-(4-Fluorophenyl)-8-morpholino-imidazo[1,2-a]pyrazin-3-yl]-3,4-dihydro-1H-quinazolin-2-one] is 100 nM; for `CNc1nccn2c(-c3ccc4[nH]c(=O)[nH]c4c3)c(-c3ccc(F)cc3)nc12` [Example 104, 5-[2-(4-Fluorophenyl)-8-(methylamino)imidazo[1,2-a]pyrazin-3-yl]-1,3-dihydrobenzimidazol-2-one] it is 6.31 nM.
Consider `Oc1ccc(-c2c(C3CCCCC3)nc3c(N4CCOCC4)nccn23)cc1` [Example 85, 4-(2-Cyclohexyl-8-morpholino-imidazo[1,2-a]pyrazin-3-yl)phenol], for which the IC50 was 200 nM.
With `O=C1Cc2cc(-c3c(-c4ccc(F)cc4)nc4c(N5CCOCC5)ncc(F)n34)ccc2N1` [Example 161, 5-(5-Fluoro-2-(4-fluorophenyl)-8-morpholinoimidazo[1,2-a]pyrazin-3-yl)indolin-2-one] the figure was 6.31 nM; with `O=C(NCc1ccccc1)c1nc2c(N3CCOCC3)nccn2c1-c1ccc2[nH]c(=O)[nH]c2c1` [Example 139, N-Benzyl-8-morpholino-3-(2-oxo-1,3-dihydrobenzimidazol-5-yl)imidazo[1,2-a]pyrazine-2-carboxamide], 25.1 nM.
With `O=C1Cc2cc(-c3c(-c4ccc(F)cc4)nc4cnccn34)ccc2N1` [Example 135, 5-(2-(4-Fluorophenyl)imidazo[1,2-a]pyrazin-3-yl)indolin-2-one] the figure was 100 nM; with `O=C1Cc2cc(-c3c(-c4ccc(F)cc4)nc4c(N5CCC(=NO)CC5)nccn34)ccc2N1` [Example 155, 5-[2-(4-Fluorophenyl)-8-(4-hydroxyimino-1-piperidyl)imidazo[1,2-a]pyrazin-3-yl]indolin-2-one], 79.4 nM.
The figure for `Cc1cnc(N2CCOCC2)n2nc(-c3ccccc3)c(-c3ccc4[nH]ncc4c3)c12` [Example 212, 4-[3-(1H-Indazol-5-yl)-4-methyl-2-phenyl-pyrazolo[1,5-c]pyrimidin-7-yl]morpholine] is 0.0794 nM.
On to `O=C1Cc2cc(-c3c(C4CCC4)nc4c(N5CCOCC5)nccn34)ccc2N1` [Example 90, 5-(2-Cyclobutyl-8-morpholino-imidazo[1,2-a]pyrazin-3-yl)indolin-2-one], for which the IC50 is 200 nM.
Regarding `Oc1ccc(-c2c(-c3ccc(F)cc3)nc3c(N4CCCC(F)(F)C4)nccn23)cc1` [Example 29, 4-[8-(3,3-Difluoro-1-piperidyl)-2-(4-fluorophenyl)imidazo[1,2-a]pyrazin-3-yl]phenol], the IC50 is 31.6 nM.
The figure for `O=C1Cc2cc(-c3c(-c4ccccc4)nc4cnccn34)ccc2N1` [Example 134, 5-(2-Phenylimidazo[1,2-a]pyrazin-3-yl)indolin-2-one] is 158 nM; for `O=C(Nc1ccccc1)c1nc2c(N3CCOCC3)nccn2c1-c1ccc(O)cc1` [Example 138, 3-(4-Hydroxyphenyl)-8-morpholino-N-phenyl-imidazo[1,2-a]pyrazine-2-carboxamide] it is 20 nM.
The figure for `CN(C)c1nccn2c(-c3ccc4c(c3)CC(=O)N4)c(C(=O)Nc3ccccc3)nc12` [Example 144, 8-(Dimethylamino)-3-(2-oxoindolin-5-yl)-N-phenyl-imidazo[1,2-a]pyrazine-2-carboxamide] is 6.31 nM; for `O=C1Cc2cc(-c3c(-c4ccc(F)cc4)nc4c(F)nccn34)ccc2N1` [Example 132, 5-[8-Fluoro-2-(4-fluorophenyl)imidazo[1,2-a]pyrazin-3-yl]indolin-2-one] it is 631 nM; for `O=C(NC1CC1)c1nc2c(N3CCOCC3)nccn2c1-c1ccc2[nH]c(=O)[nH]c2c1` [Example 146, N-Cyclopropyl-8-morpholino-3-(2-oxo-1,3-dihydrobenzimidazol-5-yl)imidazo[1,2-a]pyrazine-2-carboxamide] it is 316 nM.
The figure for `Fc1ccc(-c2nc3c(N4CCOCC4)nccn3c2-c2ccc3[nH]cnc3c2)cc1` [Example 31, 4-[3-(1H-Benzimidazol-5-yl)-2-(4-fluorophenyl)imidazo[1,2-a]pyrazin-8-yl]morpholine] is 631 nM; for `CC(C)(C)c1nc2c(N3CCOCC3)nccn2c1-c1ccc2c(c1)CC(=O)N2` [Example 86, 5-(2-tert-Butyl-8-morpholino-imidazo[1,2-a]pyrazin-3-yl)indolin-2-one] it is 158 nM.
With `CC(=O)N[C@@H]1CCN(c2nccn3c(-c4ccc5[nH]c(=O)[nH]c5c4)c(-c4ccc(F)cc4)nc23)C1` [Example 100, N-[(3R)-1-[2-(4-Fluorophenyl)-3-(2-oxo-1,3-dihydrobenzimidazol-5-yl)imidazo[1,2-a]pyrazin-8-yl]pyrrolidin-3-yl]acetamide], the IC50 was 12.6 nM.
With `O=C1Cc2cc(-c3c(-c4ccc(F)cc4)nc4c(N5CCC6(CC5)N=N6)nccn34)ccc2N1` [Example 185, 5-(2-(4-Fluorophenyl)-8-(1,2,6-triazaspiro[2.5]oct-1-en-6-yl)imidazo[1,2-a]pyrazin-3-yl)indolin-2-one] the figure was 0.158 nM.
The figure for `COC1CN(c2nccn3c(-c4ccc5c(c4)CC(=O)N5)c(-c4ccccc4)nc23)C1` [Example 78, 5-[8-(3-Methoxyazetidin-1-yl)-2-phenyl-imidazo[1,2-a]pyrazin-3-yl]indolin-2-one] is 2 nM; for `CC(C)c1nn2c(N3CCOCC3)ncc(F)c2c1-c1ccc2c(c1)CC(=O)N2` [Example 235, 5-(4-Fluoro-2-isopropyl-7-morpholino-pyrazolo[1,5-c]pyrimidin-3-yl)indolin-2-one] it is 501 nM; for `O=c1[nH]c2ccc(-c3c(-c4ccc(F)cc4)nn4c(N5CCOCC5)nccc34)cc2o1` [Example 173, 6-[2-(4-Fluorophenyl)-7-morpholino-pyrazolo[1,5-c]pyrimidin-3-yl]-3H-1,3-benzoxazol-2-one] it is 1.26 nM.
With `O=C1Cc2cc(-c3c(-c4ccc(F)cc4)nc4c(NC5CCNC5=O)nccn34)ccc2N1` (stereo not drawn) [Example 40, 5-[2-(4-Fluorophenyl)-8-[(2-oxopyrrolidin-3-yl)amino]imidazo[1,2-a]pyrazin-3-yl]indolin-2-one] the figure was 251 nM.
As to `CC1COCCN1c1nccc2c(-c3ccc4c(c3)CC(=O)N4)c(-c3ccc(F)cc3)nn12` (stereo not drawn) [Example 177, 5-[2-(4-Fluorophenyl)-7-(3-methylmorpholin-4-yl)pyrazolo[1,5-c]pyrimidin-3-yl]indolin-2-one], the IC50 is 0.2 nM.
For the molecule `O=S1(=O)Cc2cc(-c3c(-c4ccc(F)cc4)nc4c(N5CCOCC5)nccn34)ccc2N1` [Example 117, 5-[2-(4-Fluorophenyl)-8-morpholino-imidazo[1,2-a]pyrazin-3-yl]-1,3-dihydro-2,1-benzothiazole 2,2-dioxide], the IC50 was 3.98 nM.
In the case of `CC(C)(C)c1nn2c(N3CC4(COC4)C3)nccc2c1-c1ccc2c(c1)CC(=O)N2` [Example 199, 5-[2-tert-Butyl-7-(6-oxa-2-azaspiro[3.3]heptan-2-yl)pyrazolo[1,5-c]pyrimidin-3-yl]indolin-2-one], the IC50 was 316 nM.
With `O=c1[nH]c2ccc(-c3c(-c4ccccc4)nn4c(N5CCOCC5)nccc34)cc2s1` [Example 242, 6-(7-Morpholino-2-phenyl-pyrazolo[1,5-c]pyrimidin-3-yl)-3H-1,3-benzothiazol-2-one] the figure was 0.0501 nM; with `O=C1CN(c2nccn3c(-c4ccc5c(c4)CC(=O)N5)c(Cc4ccccc4)nc23)CCN1` [Example 38, 5-[2-Benzyl-8-(3-oxopiperazin-1-yl)imidazo[1,2-a]pyrazin-3-yl]indolin-2-one], 1 nM; with `CC(=O)N1CCN(c2nccn3c(-c4ccc5[nH]ncc5c4)c(-c4ccc(F)cc4)nc23)CC1` [Example 13, 1-[4-[2-(4-Fluorophenyl)-3-(1H-indazol-5-yl)imidazo[1,2-a]pyrazin-8-yl]piperazin-1-yl]ethanone], 0.2 nM.
The figure for `CCN(CC)c1nccn2c(-c3ccc4c(c3)CC(=O)N4)c(-c3ccc(F)cc3)nc12` [Example 51, 5-[8-(Diethylamino)-2-(4-fluorophenyl)imidazo[1,2-a]pyrazin-3-yl]indolin-2-one] is 3.98 nM.

Source of the values: US10513523B2, “Imidazopyrazines and pyrazolopyrimidines and their use as AMPA receptor modulators” (Janssen Pharmaceutica NV, priority 2015, dated 2019).
